Laboratory results: ChEMBL document CHEMBL1153211, “Evaluation of secondary amide replacements in a series of CCR5 antagonists as a means to increase intrinsic membrane permeability. Part 1: Optimization of gem-disubstituted azacycles” (Bioorg Med Chem Lett, 2010)

Assays:
[1] = tested on: Human immunodeficiency virus 1; assay: Antiviral activity against HIV1 infected in human JC53-BL cells after 3 days by luciferase reporter gene assay; assay type: functional, organism-based; settings: Human immunodeficiency virus 1, JC53BL, 72 h
[2] = biological target: C-C chemokine receptor type 5 (Homo sapiens, UniProt P51681); assay: Antagonist activity at human CCR5; assay type: functional
[3] = Apparent permeability from apical to basolateral side of human Caco-2 cells after 21 days

Sequence of C-C chemokine receptor type 5 (P51681 whole entry): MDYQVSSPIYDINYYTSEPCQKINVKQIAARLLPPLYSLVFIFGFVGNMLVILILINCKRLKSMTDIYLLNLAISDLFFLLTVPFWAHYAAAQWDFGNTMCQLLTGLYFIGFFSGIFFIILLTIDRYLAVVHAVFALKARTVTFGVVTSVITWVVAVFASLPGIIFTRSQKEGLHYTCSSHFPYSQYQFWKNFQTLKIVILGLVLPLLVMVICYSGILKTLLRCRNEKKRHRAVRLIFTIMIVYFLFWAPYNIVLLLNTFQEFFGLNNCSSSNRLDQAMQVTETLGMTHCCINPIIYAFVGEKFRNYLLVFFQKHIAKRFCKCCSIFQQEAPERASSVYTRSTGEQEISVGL

## Cc1ncnc(C)c1C(=O)N1C[C@H]2CN(CCC3(c4ccccc4)CN(C(=O)C4CC(F)(F)C4)C3)C[C@H]2C1
[1]
  IC50: 39 nM
[2]
  IC50: 30 nM

## Cc1ncnc(C)c1C(=O)N1C[C@H]2CN(CCC3(c4ccccc4)CN(S(=O)(=O)C4CCCC4)C3)C[C@H]2C1
[1]
  IC50: 40 nM
[2]
  IC50: 27 nM

## Cc1cc(C#N)nc(C)c1C(=O)N1C[C@H]2CN(CCC3(c4ccccc4)CCN(C(=O)C(C)(C)C)C3)C[C@H]2C1 (stereo partly specified)
[2]
  IC50: 69 nM

## Cc1cc(C(F)(F)F)nc(C)c1C(=O)N1C[C@H]2CN(CCC3(c4ccccc4)CN(C(=O)C4CCC(F)(F)CC4)C3)C[C@H]2C1
[1]
  IC50: 61.2 nM
[2]
  IC50: 21 nM
[3]
  Papp A→B: 1.72 ×10⁻⁶ cm/s

## Cc1ncnc(C)c1C(=O)N1C[C@H]2CN(CCC3(c4ccccc4)CN(C(=O)C4CCC(F)(F)CC4)C3)C[C@H]2C1
[1]
  IC50: 21 nM
[2]
  IC50: 28 nM

## Cc1cc(C#N)nc(C)c1C(=O)N1C[C@H]2CN(CCC3(c4cccc(F)c4)CCN(C(=O)C(C)(C)C)CC3)C[C@H]2C1
[1]
  IC50: 18 nM
[2]
  IC50: 15 nM
[3]
  Papp A→B: 2.73 ×10⁻⁶ cm/s

## Cc1ccnc(C)c1C(=O)N1C[C@H]2CN(CCC3(c4ccccc4)CN(C(=O)C4CCC(F)(F)CC4)C3)C[C@H]2C1
[1]
  IC50: 12 nM
[2]
  IC50: 38 nM

## Cc1cc(C#N)nc(C)c1C(=O)N1C[C@H]2CN(CCC3(c4ccccc4)CN(C(=O)C4CCC(F)(F)CC4)C3)C[C@H]2C1
[1]
  IC50: 2 nM
[2]
  IC50: 17 nM
[3]
  Papp A→B: 0.53 ×10⁻⁶ cm/s

## Cc1ncnc(C)c1C(=O)N1C[C@H]2CN(CCC3(c4cccc(F)c4)CCN(C(=O)C(C)C)CC3)C[C@H]2C1
[1]
  IC50: > 400 nM
[2]
  IC50: 102 nM

## Cc1cc(C(F)(F)F)nc(C)c1C(=O)N1C[C@H]2CN(CCC3(c4ccccc4)CN(C(=O)C4CC(F)(F)C4)C3)C[C@H]2C1
[1]
  IC50: 4 nM
[2]
  IC50: 22 nM
[3]
  Papp A→B: 1.59 ×10⁻⁶ cm/s

## Cc1ccnc(C)c1C(=O)N1C[C@H]2CN(CCC3(c4ccccc4)CN(C(=O)C4CC(F)(F)C4)C3)C[C@H]2C1
[1]
  IC50: 55 nM
[2]
  IC50: 60 nM

## Cc1ncnc(C)c1C(=O)N1C[C@H]2CN(CCC3(c4cccc(F)c4)CCN(C(=O)C(C)(C)C)CC3)C[C@H]2C1
[1]
  IC50: 67 nM
[2]
  IC50: 59 nM
[3]
  Papp A→B: 2.98 ×10⁻⁶ cm/s

## Cc1ncnc(C)c1C(=O)N1C[C@H]2CN(CCC3(c4cccc(F)c4)CCN(C(=O)CC(C)(C)C)CC3)C[C@H]2C1
[1]
  IC50: 447 nM

## CC(=O)N1CCC(CCN2C[C@@H]3CN(C(=O)c4c(C)ncnc4C)C[C@@H]3C2)(c2cccc(F)c2)CC1
[2]
  IC50: > 500 nM

## Cc1cc(C#N)nc(C)c1C(=O)N1C[C@H]2CN(CCC3(c4ccccc4)CCN(C(=O)C4CCCC4)C3)C[C@H]2C1 (stereo partly specified)
[1]
  IC50: 24 nM
[2]
  IC50: 46 nM
[3]
  Papp A→B: 2.55 ×10⁻⁶ cm/s

## Cc1ncnc(C)c1C(=O)N1C[C@H]2CN(CCC3(c4cccc(F)c4)CCN(C(=O)C(C)(C)CO)CC3)C[C@H]2C1
[2]
  IC50: 167 nM

## Cc1nc(C(F)(F)F)nc(C)c1C(=O)N1C[C@H]2CN(CCC3(c4ccccc4)CN(C(=O)C4CCOC4)C3)C[C@H]2C1 (stereo partly specified)
[1]
  IC50: 59 nM
[2]
  IC50: 38 nM

## Cc1cc(C#N)nc(C)c1C(=O)N1C[C@H]2CN(CCC3(c4ccccc4)CN(C(=O)C4CC(F)(F)C4)C3)C[C@H]2C1
[1]
  IC50: 4 nM
[2]
  IC50: 24 nM
[3]
  Papp A→B: 0.44 ×10⁻⁶ cm/s

## Cc1ncnc(C)c1C(=O)N1C[C@H]2CN(CCC3(c4ccccc4)CCN(C(=O)C4CCCC4)C3)C[C@H]2C1 (stereo partly specified)
[1]
  IC50: 351 nM
[2]
  IC50: 116 nM

## Cc1nc(C(F)(F)F)nc(C)c1C(=O)N1C[C@H]2CN(CCC3(c4ccccc4)CN(C(=O)C4CCC(F)(F)CC4)C3)C[C@H]2C1
[1]
  IC50: 4 nM
[2]
  IC50: 30 nM

## Cc1ncnc(C)c1C(=O)N1C[C@H]2CN(CCC3(c4ccccc4)CN(C(=O)CC4CCCC4)C3)C[C@H]2C1
[1]
  IC50: 53 nM
[2]
  IC50: 28 nM

## Cc1nc(C(F)(F)F)nc(C)c1C(=O)N1C[C@H]2CN(CCC3(c4ccccc4)CN(C(=O)C4CC(F)(F)C4)C3)C[C@H]2C1
[1]
  IC50: 23 nM
[2]
  IC50: 66 nM

## Cc1ncnc(C)c1C(=O)N1C[C@H]2CN(CCC3(c4ccccc4)CCN(C(=O)C(C)(C)C)C3)C[C@H]2C1 (stereo partly specified)
[2]
  IC50: 242 nM

## Cc1ncnc(C)c1C(=O)N1C[C@H]2CN(CCC3(c4ccccc4)CN(C(=O)C4CCOC4)C3)C[C@H]2C1 (stereo partly specified)
[1]
  IC50: 204 nM
[2]
  IC50: 55 nM

## Cc1ncnc(C)c1C(=O)N1C[C@H]2CN(CCC3(c4ccccc4)CN(C(=O)C(C)(C)CO)C3)C[C@H]2C1
[1]
  IC50: 130 nM
[2]
  IC50: 56 nM

## Cc1ncnc(C)c1C(=O)N1C[C@H]2CN(CCC3(c4ccccc4)CN(C(=O)C(C)(C)C)C3)C[C@H]2C1
[1]
  IC50: 77 nM
[2]
  IC50: 27 nM

## Cc1ncnc(C)c1C(=O)N1C[C@H]2CN(CCC3(c4ccccc4)CN(C(=O)C4CCCC4)C3)C[C@H]2C1
[1]
  IC50: 60 nM
[2]
  IC50: 67 nM
